Values of other authors in patent US20140056863A1, “NUTRITIONAL COMPOSITIONS HAVING ALPHA-HICA AND EICOSAPENTAENOIC ACID” (Nestec S.A., priority 2011, published 2014).

Assays:
[1] = test system: malnourished aged animals
[2] = test system: intestinal mammalian target of rapamycin (mTOR); conditions: piglet stressed with LPS; leading to increased protein synthesis and anti-inflammatory responses

Compound | anabolic effect [1] | phosphorylation of intestinal mTOR [2]
NC(=O)NCCC[C@H](N)C(=O)O [Citrulline, citrulline] | anabolic effect | 
O=C(O)CCC(=O)C(=O)O [AKG, α-ketoglutarate] |  | increased phosphorylation
